Experimental findings from US7691805B2, “Antimicrobial compounds” (Neobiotics AB, priority 2004, dated 2010) are described below.

In one series the test system is streptococcal challenge. Kind of series: Lethal streptococcal challenge in the mouse. It counts as in vivo.
The next series relates to Streptococcus: group C. The series is described as follows: Agar well diffusion. Particulars: 40 ul of 1 mg/ml in DMSO per well. (In general: In agar diffusion tests the substance spreads into inoculated agar from a disc or well.)
For the next series, the system named is Streptococcus: group G. The series is described as follows: Agar well diffusion. Particulars: 40 ul of 1 mg/ml in DMSO per well.
Another series concerns L. monocytogenes. The series is described as follows: Agar well diffusion. Particulars: 40 ul of 1 mg/ml in DMSO per well.
The test system of another series is labial herpes. The series is described as follows: Topical application in softening cream to a beginning labial herpes outbreak. The settings on record: 0.2 ml solution (0.1 g/l) in softening cream on the lip; performed twice. It counts as in vivo, human. The procedure:
Cp1 was added to a softening cream and 0.2 ml solution (0.1 g/l) was applied to an area of a beginning labial herpes outbreak on the lip of a person. After 3-4 hours the symptoms was gone. The experiment was performed twice.

For series [1], the system named is Candida albicans ATCC 10231. Kind of series: Antifungal MIC in Sabouraud broth. It counts as cell-based. The settings on record: 25° C. for 48 h; inoculum 10^3-10^4 cfu/ml. The procedure:
(§1) The minimal inhibitory concentration (MIC) was determined using a method with Sabouraud broth (Becton Dickinson) and an initial inoculum 10^3-10^4 cfu/ml. Polypropylene 96-well plates (Nunc) were incubated at 25° C. for 48 h (for Candida albicans ATCC 10231) or 7 days (for Aspergillus niger ATCC 16404). The MIC was taken as the lowest drug concentration at which noticeable growth was inhibited. The experiments were performed in duplicate.

Series [2] concerns Aspergillus niger ATCC 16404. Kind of series: Antifungal MIC in Sabouraud broth. It counts as cell-based. The settings on record: 25° C. for 7 days; inoculum 10^3-10^4 cfu/ml. As to the method:
as §1

Another series deals with S. pneumoniae. Kind of series: Agar well diffusion. Particulars: 40 ul of 1 mg/ml in DMSO per well.
Another series relates to Streptococcus: group B. The series is described as follows: Agar well diffusion. Particulars: 40 ul of 1 mg/ml in DMSO per well.
Series [3] relates to E. coli and other Gram-negatives. The series is described as follows: Agar well diffusion.
Series [4] relates to Staphylococci incl. multiresistant MRSA. The series is described as follows: Agar well diffusion. Particulars: 40 ul of 1 mg/ml in DMSO per well.
A further series has as its system Streptococcus: group A. The series is described as follows: Agar well diffusion. Particulars: 40 ul of 1 mg/ml in DMSO per well.
A further series relates to MRSA. The series is described as follows: Growth inhibition of clinical isolates. The settings on record: approximately 100 strains of MRSA, several with additional resistance markers.
The next series has as its system GAS. Kind of series: MIC by broth dilution. It counts as cell-based, group A Streptococci. The settings on record: growth media without DMSO. As to the method:
(§2) MIC/MBC determinations were performed by broth dilution according to established procedures, well known for a person skilled in the art.
(In general: Broth dilution looks for growth in wells or tubes with falling amounts of substance.)

Series [5] has as its system CNS incl. resistant and multiresistant MRSE. The series is described as follows: Agar well diffusion. The settings on record: 40 ul of 1 mg/ml in DMSO per well.
The subject of series [6] is α-haemolytic Streptococci. Kind of series: Agar well diffusion. Particulars: 40 ul of 1 mg/ml in DMSO per well.
The subject of the next series is S.aureus. The series is described as follows: MIC by broth dilution. It counts as cell-based. Particulars: growth media without DMSO. The procedure: as §2
The nature of a further series: Solubility. It counts as physicochemical. The settings on record: KCl gradient eluent during ion exchange isolation.

The structures appear in SMILES notation. In brackets after ≈: the same amount, converted by molar mass.

Take `CC(C)CC(NC(=O)C(CCCN=C(N)N)NC(=O)OCc1ccccc1)C(=O)N[C@H](CNC(=O)/C=C/c1ccccc1)C(C)C` (stereo in doubt) [Cp1, (2S)-2-[(N^α-Benzyloxycarbonyl-Arginyl-Leucyl)-Amino]-1-Trans-Cinnamoylamino-3-Methylbutane]: the “protective capacity for lethal streptococcal challenge” value in the series with streptococcal challenge is “strong protective capacity”. In addition, the antibacterial effect entry is recorded as “+” in the series on Streptococcus: group C; “+” in the series on Streptococcus: group G; “+” with L. monocytogenes; “+” in the series on S. pneumoniae; “+” in the series on Streptococcus: group B; “−” in series [3] (E. coli and other Gram-negatives, 40 ul of 1 mg/ml in DMSO per well). Further, the antibacterial effect result was “+” in [4], “+” in the series with Streptococcus: group A, “+” in series [5] and “−” in [6]. Besides, the “time after which the symptoms were gone” value in the series with labial herpes lay within 3 to 4 h. Also, the “MIC Candida albicans ATCC 10231” value in [1] is listed as 32 µg/ml. In addition, the “MIC Aspergillus niger ATCC 16404” value in series [2] was 64 µg/mL (≈ 101 µM). Moreover, in series [3], the “activity against gram-negative bacteria” value is recorded as “low or no activity”. The “growth inhibition of MRSA strains” value in the series on MRSA was “strongly inhibited in their growth”. For the same molecule, the MIC result against GAS and against S.aureus was “approximately 16 mg/L” throughout. In addition, in the series “Solubility”, the “solubility in the presence of salts” value is given as “weak solubility”.
